The results in this text go back to US12668591B2, “1,2,4-oxadiazole derivatives as histone deacetylase 6 inhibitors” (Oryzon Genomics, S.A., priority 2017, dated 2026).

For this assay, the target named is T1, HDAC6 (Homo sapiens, UniProt Q9UBN7).
T1 sequence (Q9UBN7 1-1215): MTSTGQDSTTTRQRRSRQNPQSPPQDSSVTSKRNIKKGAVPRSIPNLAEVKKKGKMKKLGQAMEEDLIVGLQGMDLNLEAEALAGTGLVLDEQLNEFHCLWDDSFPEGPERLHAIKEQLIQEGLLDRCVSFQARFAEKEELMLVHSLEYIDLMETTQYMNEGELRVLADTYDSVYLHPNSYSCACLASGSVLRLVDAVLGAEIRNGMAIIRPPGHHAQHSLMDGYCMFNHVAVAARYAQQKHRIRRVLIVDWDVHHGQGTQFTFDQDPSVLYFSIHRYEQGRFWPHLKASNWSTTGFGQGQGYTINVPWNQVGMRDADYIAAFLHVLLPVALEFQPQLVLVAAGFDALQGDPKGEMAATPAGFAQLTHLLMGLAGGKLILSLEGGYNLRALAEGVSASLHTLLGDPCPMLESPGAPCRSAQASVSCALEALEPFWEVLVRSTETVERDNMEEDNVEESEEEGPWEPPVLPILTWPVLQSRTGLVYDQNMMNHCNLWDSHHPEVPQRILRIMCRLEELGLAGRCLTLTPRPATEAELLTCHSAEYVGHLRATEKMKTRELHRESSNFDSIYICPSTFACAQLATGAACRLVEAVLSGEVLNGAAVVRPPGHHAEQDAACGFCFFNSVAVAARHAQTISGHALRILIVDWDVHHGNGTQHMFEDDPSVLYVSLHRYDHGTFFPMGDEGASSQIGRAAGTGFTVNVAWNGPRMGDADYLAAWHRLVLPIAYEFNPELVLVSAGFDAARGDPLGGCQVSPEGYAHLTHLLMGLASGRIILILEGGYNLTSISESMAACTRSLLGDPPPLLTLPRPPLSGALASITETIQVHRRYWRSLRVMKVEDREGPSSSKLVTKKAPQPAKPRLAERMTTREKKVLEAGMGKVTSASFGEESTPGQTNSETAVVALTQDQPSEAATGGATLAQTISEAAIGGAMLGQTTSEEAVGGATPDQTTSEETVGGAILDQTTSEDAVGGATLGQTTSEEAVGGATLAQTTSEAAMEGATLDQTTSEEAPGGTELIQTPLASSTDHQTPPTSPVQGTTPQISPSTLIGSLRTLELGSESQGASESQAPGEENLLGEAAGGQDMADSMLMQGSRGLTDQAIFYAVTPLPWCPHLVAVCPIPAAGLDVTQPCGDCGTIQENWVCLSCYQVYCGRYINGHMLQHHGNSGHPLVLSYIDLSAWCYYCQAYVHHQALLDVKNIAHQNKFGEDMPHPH
Briefly: In vitro cell-based assay: acetylation levels of Alpha-Tubulin by Western Blot in MOLP8 cells. To be noted: 18 h, acetyl-alpha-tubulin relative band intensity, ACY-1215 1 μM = 100%. Set-up: endogenous in cells; host or cells: MOLP8. The method, then: In Vitro Cell-Based Assay
In order to determine the cellular activity of HDAC6 upon treatment with HDAC6 inhibitors, acetylation levels of Alpha-Tubulin (a HDAC6-specific substrate) were measured by Western Blot. For this, MOLP8 cells were seeded in 6-well plates at a cell density of 500.000 cells/well and treated with the selected compounds at 5 and 1 μM for 18 h at 37° C. and 5% CO2 in a humidified tissue culture incubator. Consecutively, cell pellets were collected and whole protein extracts prepared using RIPA buffer (SIGMA) supplemented with 1× protease inhibitors (cOmplete mini, Roche). Protein concentration was determined with Bradford's reagent (Bio-Rad) as per manufacturer's instructions, and 7 μg of total protein were loaded into pre-cast 10% NuPAGE Novex gels (Life Technologies). Gels were run in […] (Life Technologies) and proteins were transferred using the iBlot 2 Dry Blotting System (Life Technologies). Blots were subsequently rinsed in distilled water and stained with Ponceau S solution (SIGMA). Blots were then washed in distilled water to remove Ponceau excess and scanned with the Epson Perfection V600 Photo professional Scanner. After this, blots were de-stained and blocked in 5% milk/PBS-Tween 0.1% for 1 h at room temperature followed by incubation with anti-Acetyl-alpha Tubulin (SIGMA cat. #T7451, 1:10.000 dilution) and anti-Beta-actin (SIGMA, cat. #A5316, 1:2.000 dilution) primary antibodies in 5% milk/PBS-T 0.1%, overnight at 4° C. on a shaking platform. After incubation, blots were washed 3 times for 5 minutes each in PBS-Tween 0.5% and incubated with anti-mouse HRP-conjugated secondary antibody (Jackson Immuno Research, cat. #115-035-068) at 1:8.000 in 5% milk/PBS-Tween 0.1%, 1 h at room temperature on a shaking platform. After 3 washes of 5 minutes each with PBS-Tween 0.5% and 1 wash in PBS 1×, blots were developed with ECL Plus (GE Healthcare) and the chemiluminescent reaction imaged with the G:Box Chemi XRQ (Syngene) imaging system. WB and Ponceau images were analysed with ImageJ software, WB band intensities normalized by either total protein or Beta-actin content and made relative to ACY-1215 1 μM (equivalent to 100%). ACY-1215 is a HDAC6 inhibitor, and is also known as ricolinostat, with chemical name 2-(diphenylamino)-N-[7-(hydroxyamino)-7-oxoheptyl]-5-pyrimidinecarboxamide. Percentage of band intensities was classified as follows: […]
(A western blot detects proteins with antibodies after separation by electrophoresis.)

Consider `CCCn1ccc2cc(-c3cc(-c4noc(C(F)(F)F)n4)ccn3)ncc21` [Example 1a, 3-(2-(1-Propyl-1H-pyrrolo[2,3-c]pyridin-5-yl)pyridin-4-yl)-5-(trifluoromethyl)-1,2,4-oxadiazole], for which the “Cellular activity @1 uM” value was “− (<50)” and the “Cellular activity @5 uM” value is “++ (150-300)”.
The corresponding values for `COCCn1nc(-c2cc(-c3noc(C(F)(F)F)n3)ccn2)c2ncccc21` [Example 1aaa, 3-(2-(1-(2-Methoxyethyl)-1H-pyrazolo[4,3-b]pyridin-3-yl)pyridin-4-yl)-5-(trifluoromethyl)-1,2,4-oxadiazole] are “+ (50-150)” and “+ (50-150)”.
The matching figures for `CCn1nc(-c2cc(-c3noc(C(F)(F)F)n3)ccn2)c2ncccc21` [Example 1aab, 3-(2-(1-Ethyl-1H-pyrazolo[4,3-b]pyridin-3-yl)pyridin-4-yl)-5-(trifiuoromethyl)-1,2,4-oxadiazole]: “+ (50-150)” and “+ (50-150)”.
Consider `Cn1ccnc1CCn1nc(-c2cc(-c3noc(C(F)(F)F)n3)ccn2)c2ncccc21` [Example 1aac], for which the “Cellular activity @1 uM” value was “+ (50-150)” and the “Cellular activity @5 uM” value is “++ (150-300)”.
The corresponding values for `Cn1cc(Cn2ccc3cnc(-c4cc(-c5noc(C(F)(F)F)n5)ccn4)cc32)cn1` [Example 1aad, 3-(2-(1-((1-Methyl-1H-pyrazol-4-yl)methyl)-1H-pyrrolo[3,2-c]pyridin-6-yl)pyridin-4-yl)-5-(trifluoromethyl)-1,2,4-oxadiazole] are “+ (50-150)” and “++ (150-300)”.
Consider `O=C(CCc1ccccc1)Nc1ccnc(-c2cc(-c3noc(C(F)(F)F)n3)ccn2)c1` [Example 1ad, 3-Phenyl-N-(4′-(5-(trifluoromethyl)-1,2,4-oxadiazol-3-yl)-[2,2′-bipyridin]-4-yl)propanamide], for which the “Cellular activity @1 uM” value was “+ (50-150)” and the “Cellular activity @5 uM” value is listed as “+ (50-150)”.
Regarding `O=C(NC1CCCNC1)c1ccnc(-c2cc(-c3noc(C(F)(F)F)n3)ccn2)c1` (stereo not drawn) [Example 1af, N-(Piperidin-3-yl)-4′-(5-(trifluoromethyl)-1,2,4-oxadiazol-3-yl)-[2,2′-bipyridine]-4-carboxamide], the “Cellular activity @1 uM” value was “+ (50-150)” and the “Cellular activity @5 uM” value is “+ (50-150)”.
As for `FC(F)(F)c1nc(-c2ccnc(-c3ccc(OCCCn4cccn4)cn3)c2)no1` [Example 1ag, 3-(5′-(3-(1H-Pyrazol-1-yl)propoxy)-[2,2′-bipyridin]-4-yl)-5-(trifluoromethyl)-1,2,4-oxadiazole], the “Cellular activity @1 uM” value is reported as “− (<50)” and the “Cellular activity @5 uM” value was “+ (50-150)”.
Consider `CCCn1cc(COC)c2cc(-c3cc(-c4noc(C(F)(F)F)n4)ccn3)ncc21` [Example 1ai, 3-(2-(3-(Methoxymethyl)-1-propyl-1H-pyrrolo[2,3-c]pyridin-5-yl)pyridin-4-yl)-5-(trifluoromethyl)-1,2,4-oxadiazole], for which the “Cellular activity @1 uM” value is given as “− (<50)” and the “Cellular activity @5 uM” value was “+ (50-150)”.
In the case of `CCCCn1cc(CO)c2cc(-c3cc(-c4noc(C(F)(F)F)n4)ccn3)ncc21` [Example 1aj, (1-butyl-5-(4-(5-(trifluoromethyl)-1,2,4-oxadiazol-3-yl)pyridin-2-yl)-1H-pyrrolo[2,3-c]pyridin-3-yl)methanol], the “Cellular activity @1 uM” value is “+ (50-150)” and the “Cellular activity @5 uM” value was “+ (50-150)”.
`CN1CCC(CNC(=O)c2ccnc(-c3cc(-c4noc(C(F)(F)F)n4)ccn3)c2)CC1` [Example 1am, N-((1-Methylpiperidin-4-yl)methyl)-4′-(5-(trifluoromethyl)-1,2,4-oxadiazol-3-yl)-[2,2′-bipyridine]-4-carboxamide]: the “Cellular activity @1 uM” value is “+ (50-150)” and the “Cellular activity @5 uM” value is given as “+ (50-150)”.
In the case of `CN1CCC(CNC(=O)c2ccc(-c3cc(-c4noc(C(F)(F)F)n4)ccn3)nc2)CC1` [Example 1an, N-((1-Methylpiperidin-4-yl)methyl)-4′-(5-(trifluoromethyl)-1,2,4-oxadiazol-3-yl)-[2,2′-bipyridine]-5-carboxamide], the “Cellular activity @1 uM” value is “+ (50-150)” and the “Cellular activity @5 uM” value is “+ (50-150)”.
In the case of `FC(F)(F)CN1CCC(n2ccc3cnc(-c4cc(-c5noc(C(F)(F)F)n5)ccn4)cc32)CC1` [Example 1ao, 3-(2-(1-(1-(2,2,2-Trifluoroethyl)piperidin-4-yl)-1H-pyrrolo[3,2-c]pyridin-6-yl)pyridin-4-yl)-5-(trifluoromethyl)-1,2,4-oxadiazole], the “Cellular activity @1 uM” value is given as “+ (50-150)” and the “Cellular activity @5 uM” value is listed as “++ (150-300)”.
In the case of `COCCn1c(C(=O)N(C)C)cc2cc(-c3cc(-c4noc(C(F)(F)F)n4)ccn3)ncc21` [Example 1ar, 1-(2-Methoxyethyl)-N,N-dimethyl-5-(4-(5-(trifluoromethyl)-1,2,4-oxadiazol-3-yi)pyridin-2-yl)-1H-pyrrolo[2,3-c]pyridine-2-carboxamide], the “Cellular activity @1 uM” value was “+ (50-150)” and the “Cellular activity @5 uM” value is recorded as “+ (50-150)”.
For `COCCn1cc(-c2cn[nH]c2)c2cc(-c3cc(-c4noc(C(F)(F)F)n4)ccn3)ncc21` [Example 1as, 3-(2-(1-(2-Methoxyethyl)-3-(1H-pyrazol-4-yl)-1H-pyrrolo[2,3-c]pyridin-5-yl)pyridin-4-yl)-5-(trifluoromethyl)-1,2,4-oxadiazole], the “Cellular activity @1 uM” value is recorded as “+ (50-150)” and the “Cellular activity @5 uM” value is given as “+ (50-150)”.
As for `Cn1ccc2cc(-c3cc(-c4noc(C(F)(F)F)n4)ccn3)ncc21` [Example 1at, 3-(2-(1-Methyl-1H-pyrrolo[2,3-c]pyridin-5-yl)pyridin-4-yl)-5-(trifluoromethyl)-1,2,4-oxadiazole], the “Cellular activity @1 uM” value was “− (<50)” and the “Cellular activity @5 uM” value is given as “+ (50-150)”.
The corresponding values for `FC(F)(F)c1nc(-c2ccnc(-c3cc4c(ccn4Cc4cccnc4)cn3)c2)no1` [Example 1av, 3-(2-(1-(Pyridin-3-ylmethyl)-1H-pyrrolo[3,2-c]pyridin-6-yl)pyridin-4-yl)-5-(trifluoromethyl)-1,2,4-oxadiazole] are “+ (50-150)” and “++ (150-300)”.
The matching figures for `CN(CCO)CCCOc1ccc(-c2cc(-c3noc(C(F)(F)F)n3)ccn2)nc1` [Example 1ax, 2-(Methyl(3-((4′-(5-(trifluoromethyl)-1,2,4-oxadiazol-3-yl)-[2,2′-bipyridin]-5-yl)oxy)propyl)amino)ethan-1-ol]: “+ (50-150)” and “+ (50-150)”.
